Assay results as given in patent US7795207B2, “Lipopeptide compositions” (priority 2005, dated 2010).
≈ marks a conversion by molar mass, not a printed value.

Columns and labels:
[1] = test system: fresh venal human blood; conditions: for Reduction of the hemolysis in %: lipopeptide 1,600 mg/l in presence of 2.5% SBE-β-CD
[2] = test system: Streptococcus pneumoniae L3TV; test: Intranasal lung infection model in the mouse; type: in vivo; conditions: mice, total dose 20 mg/kg subcutaneously 1 and 4 hours after infection; SBE-β-CD:friulimicin B 2.5:1; Mann Whitney Test p=0.0159
Procedure: Herein, Ca2Cl2 friulimicin B serves as an example molecule for the antibiotics of the class of the lipopeptides and sulfobutylether-β-cyclodextrin (SBE-β-CD) as examples for modified β-cyclodextrins. Shown are the results of a study with an intranasal lung infection model in the mouse.
Female mice (CFW-1 (Harlan Winkelmann, Germany)) were infected intranasally with Streptococcus pneumoniae L3TV (1*10^6 CFU/mouse). 1 and 4 hours after the infection, the animals were subcutaneously administered a total dose of 20 mg Ca2Cl2 friulimicin B/kg with and without SBE-BCD (5%). 24-hours after the infection, a determination of the number of germs in the lung was performed by plating-out of a tissue disintegration on agar plates in a manner the person skilled in the art is familiar with.

[3] = test system: canine blood; test: Hemolysis test with venal canine blood; type: cell-based; conditions: molar ratio SBE-β-CD:friulimicin B 2.5:1
Procedure: Ca2Cl2 friulimicin B was dissolved in 0.9% NaCl solution with and without addition of SBE-β-CD. In the batch with SBE-β-CD there was a molar ratio (SBE-β-CD:friulimicin B) of 2.5:1. […] Statements of the content of Ca2Cl2 friulimicin B (in mg/l) refer to the final concentrations of the free acid of the friulimicin B in the reaction batch. The statements of the molar ratio refer to the free acids of friulimicin B and SBE-β-CD, respectively.

[4] = test system: Staphylococcus carnosus ATCC 51365; test: Minimum inhibitory concentration (agar dilution, CLSI); type: cell-based
Procedure: (§1) The effects of cyclodextrins on the antibiotic activity von Ca2Cl2 friulimicin B were investigated by in vitro experiments about the growth inhibition of Gram-positive bacteria. Herein, the minimum inhibitory concentration for the growth inhibition was determined by cultivation of the bacteria on nutritious agar (agar dilution) according to the CLSI (previously NCCLS) rules (National Committee for Clinical Laboratory Standards. 2003. Methods for dilution antimicrobial susceptibility tests for bacteria that grow aerobically; approved standard—6th ed. Document M7-A6. Clinical and Laboratory Standards Institute, Wayne, Pa., USA). Different molar mixture ratios of the lipopeptide Ca2Cl2 friulimicin B were tested with SBE-β-CD in Ca ions-adjusted Müller-Hinton medium. The Gram-positive strains tested for the cultivation methods were: • Staphylococcus carnosus ATCC 51365 {DSM 20501) • Staphylococcus aureus ATCC 29213 (DSM 2569) • Staphylococcus aureus ATCC 33592 (DSM 11729) • Staphylococcus epidermidis ATCC 12228 (DSM 1798)

[5] = test system: Staphylococcus epidermidis ATCC 12228; test: as above; type: cell-based
Procedure: as §1

[6] = test system: Staphylococcus aureus ATCC 33592; test: as above; type: cell-based
Procedure: as §1

[7] = test system: Staphylococcus aureus ATCC 29213; test: as above; type: cell-based
Procedure: as §1

[8] = test system: Female mice (CFW-1); test: Acute toxicity in mice after one-time iv administration; type: in vivo
Procedure: Female mice (CFW-1 (Harlan Winkelmann, Germany)) were administered once (iv) the Ca2Cl2 friulimicin B solutions with and without SBE-β-CD. The mortality rate of the animals within 24 hours was determined.

[9] = test system: E. faecalis ATCC 29212; test: Minimum inhibitory concentration in presence of HSA; type: cell-based, Enterococcus faecalis
[10] = literature (Oleson et al. 2000); cited from earlier work
[11] = literature; cited from earlier work
[12] = molar ratio Friulimicin:SBE-β-CD 1:0
[13] = molar ratio Friulimicin:SBE-β-CD 1:2.5
[14] = molar ratio Friulimicin:SBE-β-CD 1:4

For `CCC(C)CCCCCC=CCC(=O)NC(CC(=O)O)C(=O)NC1C(=O)N2CCCCC2C(=O)NC(C(C)C(=O)O)C(=O)NC(CC(=O)O)C(=O)NCC(=O)NC(CC(=O)O)C(=O)NCC(=O)NC(C(C)N)C(=O)NC(C(C)C)C(=O)N2CCCC2C(=O)NC1C` (stereo not drawn) [Amphomycin, reference compound], the “Reduction of the hemolysis in %” value [1] was 99.6%.
For `CCCCCCCCCCCCCCCCCC(=O)NC(CC(N)=O)C(=O)NC1C(=O)N2CCCCC2C(=O)NC(C(C)C(=O)O)C(=O)NC(CC(=O)O)C(=O)NCC(=O)NC(CC(=O)O)C(=O)NCC(=O)NC(C(C)N)C(=O)NC(C(C)C)C(=O)N2CCCC2C(=O)NC1C` (stereo not drawn) [CBS000203], the “Reduction of the hemolysis in %” value [1] was 41.3%.
In the case of `CCCCC/C=C\C/C=C\C/C=C\CCCCC(=O)NC(CC(N)=O)C(=O)NC1C(=O)N2CCCCC2C(=O)NC(C(C)C(=O)O)C(=O)NC(CC(=O)O)C(=O)NCC(=O)NC(CC(=O)O)C(=O)NCC(=O)NC(C(C)N)C(=O)NC(C(C)C)C(=O)N2CCCC2C(=O)NC1C` (stereo not drawn) [CBS000204], the “Reduction of the hemolysis in %” value [1] is reported as 87.0%.
In the case of `CC(C)C1NC(=O)C(C(C)N)NC(=O)CNC(=O)C(CC(=O)O)NC(=O)CNC(=O)C(CC(=O)O)NC(=O)C(C(C)C(=O)O)NC(=O)C2CCCCN2C(=O)C(NC(=O)C(CC(N)=O)NC(=O)c2ccc(CCc3ccc(CCc4ccccc4)cc3)cc2)C(C)NC(=O)C2CCCN2C1=O` (stereo not drawn) [CBS000217], the “Reduction of the hemolysis in %” value [1] is reported as 99.5%.
With `CC(C)CCCCCCC/C=C\CC(=O)N[C@@H](CC(N)=O)C(=O)N[C@@H]1C(=O)N2CCCC[C@@H]2C(=O)N[C@@H]([C@H](C)C(=O)O)C(=O)N[C@@H](CC(=O)O)C(=O)NCC(=O)N[C@@H](CC(=O)O)C(=O)NCC(=O)N[C@H]([C@H](C)N)C(=O)N[C@@H](C(C)C)C(=O)N2CCC[C@H]2C(=O)N[C@@H]1C` [Ca2Cl2 friulimicin B, friulimicin B] the “Antibiotic effect (number of germs in the lung 24 hours after infection), with vs without SBE-β-CD” value [2] was “increases the antibiotic effect”, the “Reduction of the hemolysis by the addition of SBE-β-CD” value ([3]; friulimicin B 800 mg/l) was 55% and the “Reduction of the hemolysis by the addition of SBE-β-CD” value ([3]; friulimicin B 5,000 mg/l) was 100%. For the same molecule, the “Antibiotic activity (MIC)” value [4, 12] was 0.5 µg/mL, the “Antibiotic activity (MIC)” value [4, 13] was 0.5 µg/mL and the “Antibiotic activity (MIC)” value [4, 14] was 0.5 µg/mL. For the same molecule, the “Antibiotic activity (MIC)” value [5, 12] was 0.5 µg/mL, the “Antibiotic activity (MIC)” value [5, 13] was 0.5 µg/mL and the “Antibiotic activity (MIC)” value [5, 14] was 0.5 µg/mL. For the same molecule, the “Antibiotic activity (MIC)” value [6, 12] was 1 µg/mL, the “Antibiotic activity (MIC)” value [6, 13] was 1 µg/mL and the “Antibiotic activity (MIC)” value [6, 14] was 1 µg/mL. The “Antibiotic activity (MIC)” value [7, 12] was 0.5 µg/mL, the “Antibiotic activity (MIC)” value [7, 13] was 0.5 µg/mL and the “Antibiotic activity (MIC)” value [7, 14] was 0.5 µg/mL. The “Effect of HP-β-CD on the induced hemolysis” value [1] was “suppress”, the “Mortality rate within 24 hours” value ([8]; 300 mg/kg iv once, with addition of SBE-β-CD (molar ratio 2.5:1)) was 0% (0/3) and the “Mortality rate within 24 hours” value ([8]; 300 mg/kg iv once, without addition of SBE-β-CD) was 0% (0/3). For the same molecule, the “Mortality rate within 24 hours” value ([8]; 350 mg/kg iv once, without addition of SBE-β-CD) was 66% (2/3), the “Mortality rate within 24 hours” value ([8]; 400 mg/kg iv once, with addition of SBE-β-CD (molar ratio 2.5:1)) was 0% (0/3) and the “Mortality rate within 24 hours” value ([8]; 400 mg/kg iv once, without addition of SBE-β-CD) was 100% (3/3).
Molecule `CC(C)CCCCCCC/C=C\CC(=O)N[C@@H](CC(N)=O)C(=O)N[C@@H]1C(=O)N2CCCC[C@@H]2C(=O)N[C@@H]([C@H](C)C(=O)O)C(=O)N[C@@H](CC(=O)O)C(=O)NCC(=O)N[C@@H](CC(=O)O)C(=O)NCC(=O)N[C@H]([C@H](C)N)C(=O)N[C@@H](C(C)C)C(=O)N2CCC[C@H]2C(=O)N[C@@H]1C` [Na2 friulimicin B, friulimicin B] has an MIC value ([9]; medium addition 0% HSA) of 4 µg/mL, an MIC value ([9]; medium addition 4% HSA) greater than 64 µg/mL and an MIC value ([7]; medium addition 0% HSA) of 2 µg/mL (≈ 1.53 µM). It also gave an MIC value ([7]; medium addition 4% HSA) of 8 µg/mL (≈ 6.14 µM).
For `CCCCCCCCCC(=O)N[C@@H](Cc1c[nH]c2ccccc12)C(=O)N[C@H](CC(N)=O)C(=O)N[C@@H](CC(=O)O)C(=O)N[C@@H]1C(=O)NCC(=O)N[C@@H](CCCN)C(=O)N[C@@H](CC(=O)O)C(=O)N[C@H](C)C(=O)N[C@@H](CC(=O)O)C(=O)NCC(=O)N[C@H](CO)C(=O)N[C@@H]([C@H](C)CC(=O)O)C(=O)N[C@@H](CC(=O)c2ccccc2N)C(=O)O[C@@H]1C` [daptomycin], the “Toxicity on the skeletal muscle” value [10] is given as “damages the skeletal muscle”.
In the case of iturin A, the Hemolytic action [11] is listed as “act in a hemolytic manner”.
In the case of lichenysin, the Hemolytic action [11] is given as “act in a hemolytic manner”.
In the case of surfactin A, the Hemolytic action [11] is given as “act in a hemolytic manner”.
